Test results from PubChem BioAssay (NCI).
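Five concentrations, 48 hours, 96-well plates. At the TGI there is no net growth.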

What was measured:
Test in all cases: inhibition of tumour cell growth, NCI panel, 48 h
SW-620 colon = system: SW-620 colon
786-0 renal = system: 786-0 renal
OVCAR-8 ovarian = system: OVCAR-8 ovarian
A549 NSCLC = system: A549 NSCLC
UACC-257 melanoma = system: UACC-257 melanoma
LOX IMVI melanoma = system: LOX IMVI melanoma
HT29 colon = system: HT29 colon
RXF 393 renal = system: RXF 393 renal
OVCAR-4 ovarian = system: OVCAR-4 ovarian
ACHN renal = system: ACHN renal
MDA-N = system: MDA-N
NCI-H460 lung = system: NCI-H460 lung
HCT-15 colon = system: HCT-15 colon
MDA-MB-231 breast = system: MDA-MB-231 breast
OVCAR-3 ovarian = system: OVCAR-3 ovarian
SK-OV-3 ovarian = system: SK-OV-3 ovarian
U251 CNS = system: U251 CNS
SK-MEL-5 melanoma = system: SK-MEL-5 melanoma
TK-10 renal = system: TK-10 renal
HCT-116 colon = system: HCT-116 colon
SF-268 CNS = system: SF-268 CNS
SK-MEL-2 melanoma = system: SK-MEL-2 melanoma
RPMI-8226 leukemia = system: RPMI-8226 leukemia
COLO 205 colon = system: COLO 205 colon
K-562 leukemia = system: K-562 leukemia
MCF7 breast = system: MCF7 breast
T-47D breast = system: T-47D breast
NCI/ADR-RES ovarian = system: NCI/ADR-RES ovarian
UO-31 renal = system: UO-31 renal
M14 melanoma = system: M14 melanoma
EKVX NSCLC = system: EKVX NSCLC
NCI-H23 lung = system: NCI-H23 lung
SF-295 CNS = system: SF-295 CNS
A498 renal = system: A498 renal
SN12C renal = system: SN12C renal
OVCAR-5 ovarian = system: OVCAR-5 ovarian
SK-MEL-28 melanoma = system: SK-MEL-28 melanoma
MDA-MB-435 = system: MDA-MB-435
NCI-H522 lung = system: NCI-H522 lung
CCRF-CEM leukemia = system: CCRF-CEM leukemia
HL-60(TB) leukemia = system: HL-60(TB) leukemia
PC-3 prostate = system: PC-3 prostate
SR leukemia = system: SR leukemia
CAKI-1 renal = system: CAKI-1 renal
SNB-75 CNS = system: SNB-75 CNS
MALME-3M melanoma = system: MALME-3M melanoma
HOP-62 NSCLC = system: HOP-62 NSCLC
HS 578T breast = system: HS 578T breast
SF-539 CNS = system: SF-539 CNS
NCI-H226 lung = system: NCI-H226 lung
IGROV1 ovarian = system: IGROV1 ovarian
HOP-92 NSCLC = system: HOP-92 NSCLC
UACC-62 melanoma = system: UACC-62 melanoma
SNB-19 CNS = system: SNB-19 CNS
DU-145 prostate = system: DU-145 prostate
BT-549 breast = system: BT-549 breast
KM12 colon = system: KM12 colon
MOLT-4 leukemia = system: MOLT-4 leukemia
HCC-2998 colon = system: HCC-2998 colon

Question: `NC(Cc1ccccc1)c1nn[nH]n1` (centres undefined) was tested. Which TGI (SW-620 colon) did it give?
Answer: > 100 µM

Question: And the TGI (786-0 renal)?
Answer: > 100 µM

Question: What about the TGI (OVCAR-8 ovarian) of the same compound?
Answer: > 100 µM

Question: What about the TGI (A549 NSCLC) of the same compound?
Answer: > 100 µM

Question: And the TGI (UACC-257 melanoma)?
Answer: > 100 µM

Question: What about the TGI (LOX IMVI melanoma) of the same compound?
Answer: > 100 µM

Question: And the TGI (HT29 colon)?
Answer: > 100 µM

Question: What about the TGI (RXF 393 renal) of the same compound?
Answer: > 100 µM

Question: What about the TGI (OVCAR-4 ovarian) of the same compound?
Answer: > 100 µM

Question: What about the TGI (ACHN renal) of the same compound?
Answer: > 100 µM

Question: And the TGI (MDA-N)?
Answer: > 100 µM

Question: And the TGI (NCI-H460 lung)?
Answer: > 100 µM

Question: What about the TGI (HCT-15 colon) of the same compound?
Answer: > 100 µM

Question: What about the TGI (MDA-MB-231 breast) of the same compound?
Answer: > 100 µM

Question: What about the TGI (OVCAR-3 ovarian) of the same compound?
Answer: > 100 µM

Question: And the TGI (SK-OV-3 ovarian)?
Answer: > 100 µM

Question: And the TGI (U251 CNS)?
Answer: > 100 µM

Question: What about the TGI (SK-MEL-5 melanoma) of the same compound?
Answer: > 100 µM

Question: And the TGI (TK-10 renal)?
Answer: > 100 µM

Question: And the TGI (HCT-116 colon)?
Answer: > 100 µM

Question: And the TGI (SF-268 CNS)?
Answer: > 100 µM

Question: What about the TGI (SK-MEL-2 melanoma) of the same compound?
Answer: > 100 µM

Question: What about the TGI (RPMI-8226 leukemia) of the same compound?
Answer: > 100 µM

Question: What about the TGI (COLO 205 colon) of the same compound?
Answer: > 100 µM

Question: What about the TGI (K-562 leukemia) of the same compound?
Answer: > 100 µM

Question: And the TGI (MCF7 breast)?
Answer: > 100 µM

Question: What about the TGI (T-47D breast) of the same compound?
Answer: > 100 µM

Question: And the TGI (NCI/ADR-RES ovarian)?
Answer: > 100 µM

Question: What about the TGI (UO-31 renal) of the same compound?
Answer: > 100 µM

Question: And the TGI (M14 melanoma)?
Answer: > 100 µM

Question: What about the TGI (EKVX NSCLC) of the same compound?
Answer: > 100 µM

Question: What about the TGI (NCI-H23 lung) of the same compound?
Answer: > 100 µM

Question: And the TGI (SF-295 CNS)?
Answer: > 100 µM

Question: What about the TGI (A498 renal) of the same compound?
Answer: > 100 µM

Question: What about the TGI (SN12C renal) of the same compound?
Answer: > 100 µM

Question: And the TGI (OVCAR-5 ovarian)?
Answer: > 100 µM

Question: And the TGI (SK-MEL-28 melanoma)?
Answer: > 100 µM

Question: What about the TGI (MDA-MB-435) of the same compound?
Answer: > 100 µM

Question: What about the TGI (NCI-H522 lung) of the same compound?
Answer: > 100 µM

Question: What about the TGI (CCRF-CEM leukemia) of the same compound?
Answer: > 100 µM

Question: And the TGI (HL-60(TB) leukemia)?
Answer: > 100 µM

Question: And the TGI (PC-3 prostate)?
Answer: > 100 µM

Question: And the TGI (SR leukemia)?
Answer: > 100 µM

Question: And the TGI (CAKI-1 renal)?
Answer: > 100 µM

Question: What about the TGI (SNB-75 CNS) of the same compound?
Answer: > 100 µM

Question: What about the TGI (MALME-3M melanoma) of the same compound?
Answer: > 100 µM

Question: And the TGI (HOP-62 NSCLC)?
Answer: > 100 µM

Question: What about the TGI (HS 578T breast) of the same compound?
Answer: > 100 µM

Question: What about the TGI (SF-539 CNS) of the same compound?
Answer: > 100 µM

Question: And the TGI (NCI-H226 lung)?
Answer: > 100 µM

Question: What about the TGI (IGROV1 ovarian) of the same compound?
Answer: > 100 µM

Question: What about the TGI (HOP-92 NSCLC) of the same compound?
Answer: > 100 µM

Question: And the TGI (UACC-62 melanoma)?
Answer: > 100 µM

Question: What about the TGI (SNB-19 CNS) of the same compound?
Answer: > 100 µM

Question: What about the TGI (DU-145 prostate) of the same compound?
Answer: > 100 µM

Question: What about the TGI (BT-549 breast) of the same compound?
Answer: > 100 µM

Question: And the TGI (KM12 colon)?
Answer: > 100 µM

Question: What does the source list for `CCCNCC(O)CNc1ccc(NCC(O)CNCCC)c2c1C(=O)c1ccccc1C2=O` (centres undefined)?
Answer: TGI (SW-620 colon): 7.21 µM; TGI (786-0 renal): 8.21 µM; TGI (MOLT-4 leukemia): 7.6 µM; TGI (OVCAR-8 ovarian): 8.51 µM; TGI (A549 NSCLC): 4.64 µM; TGI (UACC-257 melanoma): 17.6 µM; TGI (LOX IMVI melanoma): 3.62 µM; TGI (HT29 colon): 7.69 µM; TGI (OVCAR-4 ovarian): 10.6 µM; TGI (ACHN renal): 18.3 µM; TGI (MDA-N): 11.7 µM; TGI (NCI-H460 lung): 8.48 µM; TGI (HCT-15 colon): 75 µM; TGI (MDA-MB-231 breast): 10.1 µM; TGI (OVCAR-3 ovarian): 13.7 µM; TGI (SK-OV-3 ovarian): 7.78 µM; TGI (U251 CNS): 9.02 µM; TGI (SK-MEL-5 melanoma): 9.76 µM; TGI (TK-10 renal): 22.2 µM; TGI (HCT-116 colon): 8.31 µM; TGI (SF-268 CNS): 5.66 µM; TGI (SK-MEL-2 melanoma): 5.22 µM; TGI (RPMI-8226 leukemia): 6.05 µM; TGI (COLO 205 colon): 7.97 µM; TGI (K-562 leukemia): 8.21 µM; TGI (MCF7 breast): 7.5 µM; TGI (T-47D breast): 14.6 µM; TGI (NCI/ADR-RES ovarian): > 75 µM; TGI (UO-31 renal): 31.8 µM; TGI (HCC-2998 colon): 3.21 µM; TGI (M14 melanoma): 11 µM; TGI (EKVX NSCLC): 20.1 µM; TGI (NCI-H23 lung): 12.2 µM; TGI (A498 renal): 23.5 µM; TGI (SN12C renal): 7.67 µM; TGI (OVCAR-5 ovarian): 3.99 µM; TGI (SK-MEL-28 melanoma): 9.69 µM; TGI (MDA-MB-435): 10.5 µM; TGI (NCI-H522 lung): 7.81 µM; TGI (CCRF-CEM leukemia): 4.35 µM; TGI (HL-60(TB) leukemia): 18.9 µM; TGI (PC-3 prostate): 4.7 µM; TGI (SR leukemia): 11 µM; TGI (CAKI-1 renal): 28.7 µM; TGI (SNB-75 CNS): 8.83 µM; TGI (MALME-3M melanoma): 11.3 µM; TGI (HOP-62 NSCLC): 8 µM; TGI (HS 578T breast): 16.6 µM; TGI (SF-539 CNS): 5.11 µM; TGI (NCI-H226 lung): 6.24 µM; TGI (IGROV1 ovarian): 7.87 µM; TGI (HOP-92 NSCLC): 6.81 µM; TGI (UACC-62 melanoma): 4.95 µM; TGI (SNB-19 CNS): 6.35 µM; TGI (DU-145 prostate): 20.2 µM; TGI (BT-549 breast): 6.99 µM; TGI (KM12 colon): 17.3 µM
